# Experiments:
# [1] = test system: MDA-MB-231 cells; assay: Monolayer cytotoxicity (MTT assay), MDA-MB-231 cells; format: cell-based, human; conditions: 72 h incubation
# Text: (§1) Cell Lines and Cell Culture Conditions. The human mammary epithelial HMLER and HMLER-shEcad cell lines were kindly donated by Prof. R. A. Weinberg (Whitehead Institute, MIT). The human epithelial breast MCF10A, breast adenocarcinoma MDA-MB-231 and MDA-MB-468, murine epithelial breast 4T1, and embryonic kidney HEK 293 cell lines were acquired from American Type Culture Collection (ATCC, Manassas, VA, USA).
# (§2) HMLER, HMLER-shEcad, and MCF10A cells were maintained in Mammary Epithelial Cell Growth Medium (MEGM) with supplements and growth factors (BPE, hydrocortisone, hEGF, insulin, and gentamicin/amphotericin-B). MDA-MB-231, MDA-MB-468, 4T1, and HEK 293 cells were maintained in Dulbecco's Modified Eagle's Medium (DMEM) supplemented with fetal bovine serum (10 %) and penicillin/streptomycin (1 %). The cells were grown at 310 K in a humidified atmosphere containing 5% CO2.
# Monolayer Cytotoxicity Studies. Exponentially growing cells were seeded at a density of approximately 5 × 10^3 cells per well in 96-well flat-bottomed microplates and allowed to attach for 24 h prior to addition of compounds. Various concentrations of the test compounds (0.0004-100 μM) were added and incubated for 72 h at 37 °C (total volume 200 μl). Stock solutions of the compounds were prepared as 10 mM DMSO solutions and diluted using cell […]
# media. The final concentration of DMSO in each well was ≤1 %. […] The optical density was measured at 550 nm using a 96-well multiscanner autoreader. Absorbance values were normalised to (DMSO-containing) control wells and plotted as concentration of test compound versus % cell viability. […]
# h, the fluorescence of the solutions was read at 590 nm (λex = 560 nm). […]
# Cellular Uptake. […] The number of cells was counted at this stage, using a haemocytometer. […] All samples were diluted 17-fold with water and analysed using inductively coupled plasma mass spectrometry (ICP-MS, Thermo Scientific ICAP-Qc quadrupole ICP mass spectrometer). Gold levels are expressed as mass of Au (ng) per million cells. […]
# [2] = test system: HEK 293 cells; assay: Monolayer cytotoxicity (MTT assay), HEK 293 cells; format: cell-based; conditions: 72 h incubation
# Text: as §1, §2
# Monolayer Cytotoxicity Studies. Exponentially growing cells were seeded at a density of approximately 5 × 10^3 cells per well in 96-well flat-bottomed microplates and allowed to attach for 24 h prior to addition of compounds. […]
# media. […] The optical density was measured at 550 nm using a 96-well multiscanner autoreader. Absorbance values were normalised to (DMSO-containing) control wells and plotted as concentration of test compound versus % cell viability. […]
smiles,measurement,setting,value
COc1ccc2c(c1)c(CC(=O)[O][Au][PH](c1ccccc1)(c1ccccc1)c1ccccc1)c(C)n2C(=O)c1ccc(Cl)cc1 [complex 1],IC50,[1],3940 ± 300 nM
same,IC50,[2],1920 ± 230 nM

# Reference: article PMC9847679, “The anti-breast cancer stem cell properties of gold(I)-non-steroidal anti-inflammatory drug complexes” (Chemical Science, 2022)
